Measured values from patent US20100112173A1, “ADDITIVE TO LOW-ALCOHOL OR SOFT DRINKS AND METHODS OF CONDITIONING DRINKS” (priority 2007, published 2010).

What was measured:
[1] = cited from earlier work
[2] = Bioavailability / metabolism of the selenium compound
[3] = Comparative toxicometry, DL 50 m
[4] = Hazard (toxicity) class assignment
[5] = cited from earlier work; remark: listed apart in the source
[6] = Comparative toxicometry, K sim coefficient; type: in vivo
[7] = Comparative toxicometry, Lim sub ch (30 days); type: in vivo
[8] = Comparative toxicometry, DL 50 ks

Structure (SMILES) | class of hazard subject to GOST 12.1.007-76 [1] | metabolism (bioavailability) [2] | DL 50 m [3] | hazard class according to Zaugolnikov Table [4] | Maximum allowable concentrations [5] | ADI (human) ([5]; human) [mg/kg] | K sim (Limetal) ([6]; Limetal) | K sim (according to Yu. S. Kogan) [6] | Lim sub ch (30 days) [7] [mg/kg] | DL 50 ks [8] | MAC (human) ([5]; human) [mg/m^3]
O=[Se](=O)(O)O [sodium selenate] | 1 (first) class of hazard | – | – | – | – | – | – | – | – | – | –
Cc1n[nH]c(C)c1[Se]c1c(C)n[nH]c1C [DMDPS (Selekor-S), Di-(3,4)-methyldipyrazolylselenide] | – | 85-95% | 4,800-6,000 mg/kg | fourth hazard class | 8,100 μg/kg | >0.02 | (>6) | (5) | 400 to 800 | 6,000-8,100 mg/kg | –
O=[Se]([O-])[O-].[Na+].[Na+] [Na2SeO3, sodium selenite, reference compound] | 1 (first) class of hazard | – | 6 mg/kg | – | – | 0.0007 | – | (1.6) | – | 7 to 14 mg/kg | 0.1
